# Assays:
# BTK wildtype protein = BTK wildtype protein (Homo sapiens (Human), UniProt Q06187); experiment: BTK wildtype HTRF displacement assay; assay type: binding; conditions: 1-hour incubation; read-out: BTK (wt) IC50
# Method: (§1) The ability of a compound to bind BTK wildtype or BTK C481S proteins was measured using an HTRF displacement assay. The assay measures the ability of a compound to displace a tracer ligand bound to the active site of BTK wildtype or BTK C481 S proteins.
# (§2) Test compounds were prepared as 10 mM stock solutions in DMSO (Fisher cat #BP231-100). Compounds to be assayed were dispensed using an Echo 650 acoustic dispenser (Beckman Coulter) on a 384 well plate in 6 doses applying four-fold dilutions from the highest concentration of 5 μM. N-terminal GST-tagged recombinant full-length BTK wildtype protein and BTK C481 S protein 2-659 were purchased from Carna Biosciences, Inc (Kobe, Japan). BTK wildtype or BTK C481S protein was separately incubated with compound in assay buffer containing kinase tracer 239 (Thermo Fisher) and Mab anti GST-Th (PerkinElmer). After a 1-hour incubation at room temperature, the HTRF signal was measured using SPARK plate reader (Tecan) using the TR fluorescence mode. The HTRF ratio is calculated for DMSO, no protein control and compound samples using the following equation: HTRF ratio=Emmision665/Emmision620×10^4. The signal for the no protein control samples was used to subtract background noise from the DMSO and compound samples. Background subtracted HTRF ratios are used to calculate the percent inhibition, where DMSO controls are set to 0 percent inhibition. The percent inhibition is plotted as a function of compound concentration and IC50 values were calculated from a four-parameter logistic fit in Prism v9.4 (GraphPad), where the bottom and top are constrained to 0 and 100, respectively.
# BTK C481S protein = BTK C481S protein (Homo sapiens (Human), UniProt Q06187, C481S); experiment: BTK C481S HTRF displacement assay; assay type: binding; conditions: 1-hour incubation
# Sequence of BTK C481S protein (Q06187 2-659 C481S): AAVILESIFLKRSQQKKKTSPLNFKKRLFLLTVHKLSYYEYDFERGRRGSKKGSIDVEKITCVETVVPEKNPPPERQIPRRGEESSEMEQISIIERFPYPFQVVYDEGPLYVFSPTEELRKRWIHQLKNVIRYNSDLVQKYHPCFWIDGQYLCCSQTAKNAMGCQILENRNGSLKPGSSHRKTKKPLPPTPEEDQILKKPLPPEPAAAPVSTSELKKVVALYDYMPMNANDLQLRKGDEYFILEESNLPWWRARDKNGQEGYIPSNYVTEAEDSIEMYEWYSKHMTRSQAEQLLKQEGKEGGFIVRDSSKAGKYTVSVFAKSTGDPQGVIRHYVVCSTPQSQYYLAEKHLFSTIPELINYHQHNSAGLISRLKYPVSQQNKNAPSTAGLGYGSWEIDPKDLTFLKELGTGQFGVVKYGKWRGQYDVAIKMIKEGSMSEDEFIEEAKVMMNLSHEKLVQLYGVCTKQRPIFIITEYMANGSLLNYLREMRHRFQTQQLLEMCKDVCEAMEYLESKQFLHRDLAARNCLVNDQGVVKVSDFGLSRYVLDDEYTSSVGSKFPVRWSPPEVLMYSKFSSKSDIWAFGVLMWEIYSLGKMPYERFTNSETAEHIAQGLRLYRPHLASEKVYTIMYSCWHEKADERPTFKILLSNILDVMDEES
# Method: as §1, §2
# The same assay was used to measure the activity of selected compounds of the formula TBM-L-hydrogen. Using the IC50 value observed for a given reversible test compound, the KI of the test compound can be assessed using the formula KI=IC50/(1+([Tracer]/Kd)), wherein the tracer concentration in the assay [Tracer] is 50 nM and the tracer Kd for BTK C481S is 54 nM.
# Sequence of BTK wildtype protein (Q06187 2-659): as the sequence (Q06187 2-659 C481S) above, with S480C counted along it
Structure (SMILES),IC50 (BTK wildtype protein) [nM],IC50 (BTK C481S protein) [nM]
"COc1ccc(F)cc1C(=O)NCc1ccc(-c2nn(CC3CCN(C(=O)n4cncn4)C3)c3ncnc(N)c23)cc1 (centres unmarked) [Compound 245, N-(4-(1-((1-(1H-1,2,4-triazole-1-carbonyl)pyrrolidin-3-yl)methyl)-4-amino-1H-pyrazolo[3,4-d]pyrimidin-3-yl)benzyl)-5-fluoro-2-methoxybenzamide]",≤ 1000,≤ 1000
"CN(C(=O)n1cncn1)c1ccccc1C1CCNc2c(C(N)=O)c(-c3ccc(Oc4ccccc4)cc3)nn21 (centres unmarked) [Compound 305, 7-(2-(N-methyl-1H-1,2,4-triazole-1-carboxamido)phenyl)-2-(4-phenoxyphenyl)-4,5,6,7-tetrahydropyrazolo[1,5-a] pyrimidine-3-carboxamide]",> 1000,> 1000
"COc1ccc(F)cc1C(=O)NCc1ccc(-c2nn(CC3CC(C)CCN3C(=O)n3cncn3)c3ncnc(N)c23)cc1 (centres unmarked) [Compound 112, N-(4-(4-amino-1-((4-methyl-1-(1H-1,2,4-triazole-1-carbonyl)piperidin-2-yl)methyl)-1H-pyrazolo[3,4-d]pyrimidin-3-yl)benzyl)-5-fluoro-2-methoxybenzamide]",> 1000,> 1000
"COc1nn(C)cc1Nc1nc(N2CCC3(CCN3C(=O)n3cncn3)C2)nc2c1ncn2C (centres unmarked) [Compound 107, (6-(6-((3-methoxy-1-methyl-1H-pyrazol-4-yl)amino)-9-methyl-9H-purin-2-yl)-1,6-diazaspiro[3.4]octan-1-yl)(1H-1,2,4-triazol-1-yl)methanone]",> 1000,> 1000
"COc1ccc(F)cc1C(=O)NCc1ccc(-c2nn(C[C@@H]3CCN3C(=O)n3cncn3)c3ncnc(N)c23)cc1 [Compound 103, (S)-N-(4-(1-((1-(1H-1,2,4-triazole-1-carbonyl)azetidin-2-yl)methyl)-4-amino-1H-pyrazolo[3,4-d]pyrimidin-3-yl)benzyl)-5-fluoro-2-methoxybenzamide]",≤ 1000,≤ 1000
"COc1ccc(F)cc1C(=O)NCc1ccc(-c2nn(C[C@H](C)N(C)C(=O)n3cncn3)c3ncnc(N)c23)cc1 [Compound 315, (S)-N-(1-(4-amino-3-(4-((5-fluoro-2-methoxybenzamido)methyl)phenyl)-1H-pyrazolo[3,4-d]pyrimidin-1-yl)propan-2-yl)-N-methyl-1H-1,2,4-triazole-1-carboxamide]",> 1000,> 1000
"COc1ccc(F)cc1C(=O)NCc1ccc(-c2nn(C[C@@H]3C[C@H](O)CN3C(=O)n3cncn3)c3ncnc(N)c23)cc1 [Compound 241, N-(4-(4-amino-1-(((2S,4S)-4-hydroxy-1-(1H-1,2,4-triazole-1-carbonyl)pyrrolidin-2-yl)methyl)-1H-pyrazolo[3,4-d]pyrimidin-3-yl)benzyl)-5-fluoro-2-methoxybenzamide]",≤ 1000,≤ 1000
"CN(C(=O)n1cncn1)[C@@H]1CCC[C@H](n2nc(-c3ccc(Oc4ccccc4)cc3)c(C(N)=O)c2N)C1 [Compound 297, N-((1R,3S)-3-(5-amino-4-carbamoyl-3-(4-phenoxyphenyl)-1H-pyrazol-1-yl)cyclohexyl)-N-methyl-1H-1,2,4-triazole-1-carboxamide]",≤ 1000,≤ 1000
"CC(CC1CCNc2c(C(N)=O)c(-c3ccc(Oc4ccccc4)cc3)nn21)N(C)C(=O)n1cncn1 (centres unmarked) [Compound 309, 7-(2-(N-methyl-1H-1,2,4-triazole-1-carboxamido)propyl)-2-(4-phenoxyphenyl)-4,5,6,7-tetrahydro-pyrazolo[1,5-a]pyrimidine-3-carboxamide]",≤ 1000,≤ 1000
"Cc1[nH]c2c(C(N)=O)cc(F)c(N3CCC4(CCN4C(=O)n4cncn4)C3)c2c1C (centres unmarked) [Compound 105, 4-(1-(1H-1,2,4-triazole-1-carbonyl)-1,6-diazaspiro[3.4]octan-6-yl)-5-fluoro-2,3-dimethyl-1H-indole-7-carboxamide]",≤ 1000,≤ 1000
"COc1ccc(C)cc1C(=O)NCc1ccc(-c2nn(C3CCC(N(C)C(=O)n4cncn4)CC3)c3ncnc(N)c23)cc1 (centres unmarked) [Compound 258, N-(4-(4-amino-3-(4-((2-methoxy-5-methylbenzamido)methyl)phenyl)-1H-pyrazolo[3,4-d]pyrimidin-1-yl)cyclohexyl)-N-methyl-1H-1,2,4-triazole-1-carboxamide]",≤ 1000,≤ 1000
"NC(=O)c1c(-c2ccc(Oc3ccccc3)cc2)nn2c1NCCC2C1CCN(C(=O)n2cncn2)C1 (centres unmarked) [Compound 282, 7-(1-(1H-1,2,4-triazole-1-carbonyl)pyrrolidin-3-yl)-2-(4-phenoxyphenyl)-4,5,6,7-tetrahydropyrazolo[1,5-a] pyrimidine-3-carboxamide]",≤ 1000,≤ 1000
"COc1ccc(F)cc1C(=O)NCc1ccc(-c2nn(C3(CCN(C)C(=O)n4cncn4)CC3)c3ncnc(N)c23)cc1 [Compound 225, N-(2-(1-(4-amino-3-(4-((5-fluoro-2-methoxybenzamido)methyl)phenyl)-1H-pyrazolo[3,4-d]pyrimidin-1-yl)cyclopropyl)ethyl)-N-methyl-1H-1,2,4-triazole-1-carboxamide]",≤ 1000,> 1000
"NC(=O)c1c(-c2ccc(Oc3ccccc3)cc2)nn2c1NCC1CN(C(=O)n3cncn3)CC12 (centres unmarked) [Compound 228, 2-(4-phenoxyphenyl)-7-(1H-1,2,4-triazole-1-carbonyl)-5,5a,6,7,8,8a-hexahydro-4H-pyrazolo[1,5-a] pyrrolo[3,4-e]pyrimidine-3-carboxamide]",> 1000,> 1000
"COc1ccc(F)cc1C(=O)NCc1ccc(-c2nn(C[C@H]3CCCCN3C(=O)n3cncn3)c3ncnc(N)c23)cc1 [Compound 104, (R)-N-(4-(1-((1-(1H-1,2,4-triazole-1-carbonyl)piperidin-2-yl)methyl)-4-amino-1H-pyrazolo[3,4-d]pyrimidin-3-yl)benzyl)-5-fluoro-2-methoxybenzamide]",> 1000,≤ 1000
"COc1ccc(F)cc1C(=O)NCc1ccc(-c2nn(CC3CCC(N(C)C(=O)n4cncn4)C3)c3ncnc(N)c23)cc1 (centres unmarked) [Compound 311, N-(3-((4-amino-3-(4-((5-fluoro-2-methoxybenzamido)methyl)phenyl)-1H-pyrazolo[3,4-d]pyrimidin-1-yl)methyl)cyclopentyl)-N-methyl-1H-1,2,4-triazole-1-carboxamide]",≤ 1000,≤ 1000
"CC1CN(Cc2ccc(C(F)(F)F)cc2N2CCCC2)CCN1C(=O)n1cncn1 (centres unmarked) [Compound 106, (2-methyl-4-(2-(pyrrolidin-1-yl)-4-(trifluoromethyl)benzyl)piperazin-1-yl)(1H-1,2,4-triazol-1-yl)methanone]",> 1000,> 1000
"CC[C@@H](Cn1nc(-c2ccc(CNC(=O)c3cc(F)ccc3OC)cc2)c2c(N)ncnc21)N(C)C(=O)n1cncn1 [Compound 204, (S)-N-(1-(4-amino-3-(4-((5-fluoro-2-methoxybenzamido)methyl)phenyl)-1H-pyrazolo[3,4-d]pyrimidin-1-yl)butan-2-yl)-N-methyl-1H-1,2,4-triazole-1-carboxamide]",≤ 1000,≤ 1000
"COc1ccc(C)cc1C(=O)NCc1ccc(-c2nn(C3CCC(N(C)C(=O)n4cnnn4)C3)c3ncnc(N)c23)cc1 (centres unmarked) [Compound 273, N-(3-(4-amino-3-(4-((2-methoxy-5-methylbenzamido)methyl)phenyl)-1H-pyrazolo[3,4-d]pyrimidin-1-yl)cyclopentyl)-N-methyl-1H-tetrazole-1-carboxamide]",≤ 1000,≤ 1000
"COc1ccc(F)cc1C(=O)NCc1ccc(-c2nn(CC3CCCN3C(=O)n3cncn3)c(N)c2C(N)=O)cc1 (centres unmarked) [Compound 293, 1-((1-(1H-1,2,4-triazole-1-carbonyl)pyrrolidin-2-yl)methyl)-5-amino-3-(4-((5-fluoro-2-methoxybenzamido)methyl)phenyl)-1H-pyrazole-4-carboxamide]",≤ 1000,≤ 1000
"COc1ccc(F)cc1C(=O)NCc1ccc(-c2nn(C[C@@H]3C[C@H](F)CN3C(=O)n3cncn3)c3ncnc(N)c23)cc1 [Compound 208, N-(4-(4-amino-1-(((2S,4S)-4-fluoro-1-(1H-1,2,4-triazole-1-carbonyl)pyrrolidin-2-yl)methyl)-1H-pyrazolo[3,4-d]pyrimidin-3-yl)benzyl)-5-fluoro-2-methoxybenzamide]",≤ 1000,≤ 1000
"COc1ccc(C)cc1C(=O)NCc1ccc(-c2nn(C3CCC(N(C)C(=O)n4cncn4)C3)c3ncnc(N)c23)cc1 (centres unmarked) [Compound 275, N-(3-(4-amino-3-(4-((2-methoxy-5-methylbenzamido)methyl)phenyl)-1H-pyrazolo[3,4-d]pyrimidin-1-yl)cyclopentyl)-N-methyl-1H-1,2,4-triazole-1-carboxamide]",≤ 1000,≤ 1000
